Like-named read-outs stand apart in the source and are kept apart here.
What was measured:
[1] = target: T1, human GR (glucocorticoid receptor) (Homo sapiens, UniProt P04150); test: Steroid hormone nuclear receptor binding assay, GR
T1 construct: expressed in transfected cells; host or cells: HEK293
T1 sequence (P04150 1-777): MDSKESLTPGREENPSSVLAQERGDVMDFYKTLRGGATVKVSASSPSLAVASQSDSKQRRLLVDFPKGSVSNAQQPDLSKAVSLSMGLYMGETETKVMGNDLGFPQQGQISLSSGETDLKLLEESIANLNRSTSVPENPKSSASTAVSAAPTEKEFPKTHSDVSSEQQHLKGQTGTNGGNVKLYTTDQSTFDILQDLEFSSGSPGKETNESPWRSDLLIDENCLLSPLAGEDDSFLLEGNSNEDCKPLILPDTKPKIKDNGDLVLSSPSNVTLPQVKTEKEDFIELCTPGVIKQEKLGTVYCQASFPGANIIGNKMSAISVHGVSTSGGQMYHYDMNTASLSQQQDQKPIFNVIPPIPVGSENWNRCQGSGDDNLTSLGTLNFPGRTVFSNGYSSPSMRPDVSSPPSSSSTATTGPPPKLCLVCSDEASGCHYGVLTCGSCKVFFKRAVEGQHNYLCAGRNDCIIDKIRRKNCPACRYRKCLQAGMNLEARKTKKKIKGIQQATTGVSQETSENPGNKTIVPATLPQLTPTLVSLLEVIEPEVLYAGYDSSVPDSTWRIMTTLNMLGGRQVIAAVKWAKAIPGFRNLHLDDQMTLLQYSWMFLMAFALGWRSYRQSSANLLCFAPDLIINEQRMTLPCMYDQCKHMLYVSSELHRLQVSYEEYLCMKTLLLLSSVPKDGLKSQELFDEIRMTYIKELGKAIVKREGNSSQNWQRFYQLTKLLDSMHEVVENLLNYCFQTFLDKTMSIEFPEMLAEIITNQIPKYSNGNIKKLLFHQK

[2] = tested on: HDL cholesterol in Cynomolgus monkeys; conditions: transdermal delivery
[3] = target: T2, human PR (progesterone receptor) (Homo sapiens, UniProt P06401); test: Steroid hormone nuclear receptor binding assay, PR; conditions: HEK293 lysate, [3H]-methyltrienolone
T2 construct: expressed in transfected cells; host or cells: HEK293
T2 sequence (P06401 1-933): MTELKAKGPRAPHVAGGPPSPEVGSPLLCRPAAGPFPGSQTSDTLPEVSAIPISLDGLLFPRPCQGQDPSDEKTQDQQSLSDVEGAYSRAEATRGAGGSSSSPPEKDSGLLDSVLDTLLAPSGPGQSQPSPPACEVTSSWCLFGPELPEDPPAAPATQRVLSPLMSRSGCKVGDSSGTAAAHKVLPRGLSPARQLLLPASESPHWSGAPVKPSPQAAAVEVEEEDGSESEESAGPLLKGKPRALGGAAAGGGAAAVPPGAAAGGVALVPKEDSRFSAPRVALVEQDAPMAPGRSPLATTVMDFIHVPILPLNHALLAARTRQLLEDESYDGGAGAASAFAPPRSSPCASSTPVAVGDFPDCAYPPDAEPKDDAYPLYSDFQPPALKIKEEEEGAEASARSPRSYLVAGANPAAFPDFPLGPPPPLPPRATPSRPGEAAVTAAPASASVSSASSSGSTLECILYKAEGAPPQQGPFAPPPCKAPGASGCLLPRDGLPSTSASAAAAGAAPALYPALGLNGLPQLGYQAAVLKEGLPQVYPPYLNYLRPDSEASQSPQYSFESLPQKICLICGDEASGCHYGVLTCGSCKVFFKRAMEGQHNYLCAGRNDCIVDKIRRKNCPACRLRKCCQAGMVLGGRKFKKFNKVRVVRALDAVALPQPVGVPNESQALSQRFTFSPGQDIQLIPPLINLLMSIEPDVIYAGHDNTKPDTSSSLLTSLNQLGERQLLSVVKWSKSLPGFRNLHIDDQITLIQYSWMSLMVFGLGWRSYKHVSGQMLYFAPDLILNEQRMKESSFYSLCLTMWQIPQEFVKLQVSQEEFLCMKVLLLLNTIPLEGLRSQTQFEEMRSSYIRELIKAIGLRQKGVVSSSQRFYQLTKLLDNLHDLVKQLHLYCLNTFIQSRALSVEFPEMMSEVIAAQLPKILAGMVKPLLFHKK

[4] = target: T3, human MR (mineralocorticoid receptor) (Homo sapiens, UniProt P08235); test: Steroid hormone nuclear receptor binding assay, MR; conditions: HEK293 lysate, [3H]-aldosterone
T3 construct: expressed in transfected cells; host or cells: HEK293
T3 sequence (P08235 1-984): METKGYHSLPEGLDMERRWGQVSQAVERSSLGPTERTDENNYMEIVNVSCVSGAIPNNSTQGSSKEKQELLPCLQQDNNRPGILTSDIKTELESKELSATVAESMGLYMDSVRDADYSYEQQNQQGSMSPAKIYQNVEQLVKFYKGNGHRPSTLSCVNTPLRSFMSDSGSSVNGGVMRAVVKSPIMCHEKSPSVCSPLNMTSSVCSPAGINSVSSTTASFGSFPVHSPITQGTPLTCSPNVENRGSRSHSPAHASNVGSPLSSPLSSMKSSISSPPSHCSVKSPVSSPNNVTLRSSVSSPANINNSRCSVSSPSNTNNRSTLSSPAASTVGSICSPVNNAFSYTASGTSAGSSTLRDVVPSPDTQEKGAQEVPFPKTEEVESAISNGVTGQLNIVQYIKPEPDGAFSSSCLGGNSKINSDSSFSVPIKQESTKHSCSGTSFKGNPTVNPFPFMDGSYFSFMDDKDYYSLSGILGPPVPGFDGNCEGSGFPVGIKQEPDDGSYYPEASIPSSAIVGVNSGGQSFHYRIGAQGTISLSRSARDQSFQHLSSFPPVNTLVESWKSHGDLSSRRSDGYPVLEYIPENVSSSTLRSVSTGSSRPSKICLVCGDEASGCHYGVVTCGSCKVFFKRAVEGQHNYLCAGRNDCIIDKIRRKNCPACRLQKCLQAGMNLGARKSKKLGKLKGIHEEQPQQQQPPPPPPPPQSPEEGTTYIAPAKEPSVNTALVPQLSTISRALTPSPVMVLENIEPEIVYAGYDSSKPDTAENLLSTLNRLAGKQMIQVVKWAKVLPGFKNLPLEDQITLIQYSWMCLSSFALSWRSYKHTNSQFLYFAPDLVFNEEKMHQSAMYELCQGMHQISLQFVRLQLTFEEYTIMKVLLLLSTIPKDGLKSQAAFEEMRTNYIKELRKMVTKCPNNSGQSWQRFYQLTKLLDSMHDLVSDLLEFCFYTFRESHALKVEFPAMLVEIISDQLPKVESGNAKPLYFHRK

[5] = target: T4, human AR (androgen receptor) (Homo sapiens, UniProt P10275); test: Steroid hormone nuclear receptor binding assay, AR; conditions: HEK293 lysate, [3H]-methyltrienolone
T4 construct: expressed in transfected cells; host or cells: HEK293
T4 sequence (P10275 1-920): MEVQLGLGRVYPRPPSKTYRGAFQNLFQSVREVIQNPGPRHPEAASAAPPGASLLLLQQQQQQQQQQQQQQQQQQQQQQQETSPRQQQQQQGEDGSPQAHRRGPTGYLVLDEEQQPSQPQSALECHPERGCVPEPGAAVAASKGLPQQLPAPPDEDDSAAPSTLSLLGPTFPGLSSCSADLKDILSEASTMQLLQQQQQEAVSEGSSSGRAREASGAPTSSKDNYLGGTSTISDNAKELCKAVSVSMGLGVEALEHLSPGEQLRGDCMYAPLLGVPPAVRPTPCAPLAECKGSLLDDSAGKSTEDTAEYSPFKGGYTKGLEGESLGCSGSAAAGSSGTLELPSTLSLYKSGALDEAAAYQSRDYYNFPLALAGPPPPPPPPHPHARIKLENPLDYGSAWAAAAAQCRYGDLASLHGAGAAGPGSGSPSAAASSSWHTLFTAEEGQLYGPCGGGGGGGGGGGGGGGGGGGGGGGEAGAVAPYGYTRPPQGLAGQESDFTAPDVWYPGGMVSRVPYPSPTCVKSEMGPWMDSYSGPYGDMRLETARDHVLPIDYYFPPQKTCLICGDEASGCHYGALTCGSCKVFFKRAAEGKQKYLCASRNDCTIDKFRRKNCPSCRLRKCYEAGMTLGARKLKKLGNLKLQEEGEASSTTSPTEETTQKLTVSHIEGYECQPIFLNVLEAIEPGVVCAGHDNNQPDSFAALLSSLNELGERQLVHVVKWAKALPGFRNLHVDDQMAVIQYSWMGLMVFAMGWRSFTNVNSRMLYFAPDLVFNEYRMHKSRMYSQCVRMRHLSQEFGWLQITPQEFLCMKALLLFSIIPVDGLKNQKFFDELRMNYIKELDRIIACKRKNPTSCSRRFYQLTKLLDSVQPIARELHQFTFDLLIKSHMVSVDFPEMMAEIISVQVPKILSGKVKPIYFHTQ

[6] = target: T5, human androgen receptor (AR) (Homo sapiens, UniProt P10275); test: C2C12 AR/ARE reporter assay; format: cell-based; conditions: mouse myoblast C2C12 cells, luciferase reporter, 24 h
T5 construct: expressed in transfected cells; host or cells: mouse myoblast C2C12 cells
T5 sequence (P10275 1-920): T4 sequence (P10275 1-920)

[7] = HEK293 lysate, [3H]-dexamethasone, read-out: GR (Ki nM)

`Cc1c(N[C@@H]2CCC[C@@]2(C)O)ccc(C#N)c1Cl` (single isomer, unassigned) [Example 1] was tested, and the Ki [1] was > 6020 nM and the “effect on HDL” value [2] was “minimal effect”.

With `Cc1c(N[C@H]2CC[C@H](O)[C@]2(C)O)ccc(C#N)c1Cl` (single isomer, unassigned) [Example 20] the Ki [3] was > 7960 nM, the Ki [4] was > 7150 nM and the Ki [5] was 38.1 nM. For the same molecule, the EC50 [6] was 0.146 µM and the Ki [1, 7] was > 5730 nM.

Work on `CCc1c(NC2CCOCC2(C)O)ccc(C#N)c1Cl` (single isomer, unassigned; diastereomer 2) [Example 32, 2-Chloro-3-ethyl-4-[[3-hydroxy-3-methyl-tetrahydropyran-4-yl]amino]benzonitrile, Diastereomer 2] yielded a Ki [3] of 4290 nM, a Ki [4] of 3960 nM and a Ki [5] of 162 nM. The EC50 [6] was 0.274 µM and the Ki [1, 7] was > 5820 nM.

Source: patent publication US8658693B2, “4-aminobenzonitrile selective androgen receptor modulators” (Eli Lilly and Company, priority 2011, dated 2014)
